# System: p53
# Test: Western blot quantitation of p53 released into embryo culture media
# Type: cell-based, mouse
# Settings: embryos cultured in modHTF in the absence of Paf, compared with 0.1 μM Paf supplement; FIG. 3
# Procedure: Embryos were collected and washed 3 times in cold PBS and transferred in a maximum volume of 1.5 μl PBS. Embryo culture media aliquots had embryos and all cells removed and then subjected to freeze drying. The lyophilized proteins were redissolved in 1.5 μl of water. Embryo or reconstituted culture media was mixed with 1.5 μl of 2X extraction buffer (2X PBS, 2% Triton X-100, 24 mM deoxycholic acid, 0.2% sodium dodecyl sulfate, 20 mM NaF, 20 mM Na4P2O7, 2 mM PMSF, 3.08 μM Aprotinin, 42 μM Leupeptin and 2.91 μM Pepstatin A-all from Sigma). The embryos were lysed by three cycles of freezing in liquid nitrogen and thawing (with vortexing). […]
# Proteins were blotted into PVDF membranes (Hybond-P, Amersham Pharmacia) in a semi-dry blotting apparatus overnight using transfer buffer (12 mM Tris PH 7.0, 96 mM Glycine and 20% methanol). […] Membranes were probed with 1:500 diluted anti P53 antibody overnight at 4° C. in 2.5% skim milk, and detected with 1:500 diluted horse radish peroxidase (Jackson ImmunoResearch Laboratories, West Grove, Pa., USA) conjugated mouse antibody. […]
# p53 was detected by Western blot as described above and densitometry was performed using Scion Image software (Scion Corporation, Frederick, Md., USA).
substance,measurement,value
1-o-octadecyl/hexadecyl-2-acetyl-sn-glycero-3-phosphocholine [Paf],extra-embryonic concentration of p53,higher

# Reference: patent US20070254309A1, “Methods for Assessing Embryo Viability” (Northern Sydney and Central Coast Area Health Service, priority 2006, published 2007)
